Reference: patent publication US20080119517A1, “COMPOSITIONS AND METHODS FOR PROTECTING AGAINST MITOCHONDRIA COMPONENT-MEDIATED PATHOLOGY” (Cornell Research Foundation, Inc., priority 2003, published 2008)
Entries after “also recorded” stand apart in the source; their conditions may differ.

Assays:
[1] = test system: rabbit models of cerebral and spinal ischemia; conditions: in vivo; cited from earlier work
[2] = test system: gerbil ischemia-reperfusion model; conditions: cited from earlier work
[3] = test system: isolated liver mitochondria; experiment: Four-parameter mitochondrial physiology (oxygen, Ca2+, membrane potential, swelling); type: biochemical, rat; conditions: 10 μM; for protection against PT induction (swelling, A660): high Ca2+ dose
Protocol: Mitochondrial physiological parameters were assessed to determine whether these heterocyclics and related compounds interfered direly with mitochondrial functions, and whether such interference might underlie their protection (e.g., respiratory inhibitors can score as protective in some assays, as can uncouplers, but neither would be optimal as a therapeutic candidate). […]; methiothepin [serotonin modulator]; clomipramine [antidepressant]).
FIG. 5 illustrates that the heterocyclic compounds delay PT induction in isolated liver mitochondria without impairing mitochondrial physiology. FIG. 5a depicts oxygen consumption measured by Clark electrode. Oxygen concentration in buffer decreases as the signal decreases. FIG. 5b depicts Ca^2+ transport measured by Ca^2+— selective electrode. The Ca^2+ in buffer increases as the signal increases. FIG. 5c depicts Δψ measured using a TPP^+ electrode. The Δψ parameter decreases as the signal increases. TPP^+ uptake determined by comparison with standard curve after correction for shift in the electrode signal is induced by the compounds examined. […] Changes in Δψ consistent with the slight increases in respiration (equivalent to approximately 5% of maximally uncoupled mitochondria) observed with some drags is likely below the limit of detection. FIG. 5d depicts mitochondrial swelling (absorbance) monitored by a light emitting diode BET) at A660. Mitochondrial are more swollen when signal decreases. Assay in 300 mM sucrose, 2.5 mM K—PO4, 3 mM HERPES, pH 7.2 and 5 mM succinate. Experiments were stopped shortly after oxygen was consumed.
Liver mitochondrial respiration was measured in 250 mM sucrose, 3 mM MgCl2, 0.5 mM EDTA, 10 mM KH2PO4 (pH 7.2). The buffer was equilibrated at 28° C. for not less than an hour before taking measurements. Respiration was initiated by adding mitochondria isolate to the oxygraph cell (0.9±0.2 mg/mL protein). State 3 respiration was initiated with ADP (˜200 μM). The substrates were added at either 5 or 10 mM for α-ketoglutarate and glutamate/malate and 10-20 mM for succinate. Respiration rates were determined using a PC-controlled Strathkelvin Instruments Limited 928 6-Channel Dissolved Oxygen System with two standard Clark-type electrodes fitted to two standard Gilson 1.7-1.8 mL oxygraph cells. Traces were analyzed using the Strathkelvin data acquisition and analysis program included with the instrument. The lines of best fit were calculated and plotted to polarographic traces using the built-in software function based on least squares regression analysis. State 3 respiration rates were calculated when stabilized, i.e., 1.0-1.5 minutes after initiating the state. Respiration before and after ADP consumption was used to calculated RCR. All experiments were carried out in triplicate. All substrates used in mitochondrial respiration experiments were dissolved in respiration buffer (see below) and brought to neutral pH.
The experimental system employed comprises a respiration chamber that can be sealed and placed in a light tight outer chamber. Electrodes and sensors are positioned in a single plane around the outside of the chamber—this system enables simultaneous measurement of oxygen uptake, membrane potential, calcium, and light scattering (absorbance). Oxygen uptake, membrane potential, and Cab are measured using Clark, TPP^+, and Ca^2+-sensitive electrodes, respectively see, Zhu, S., et al., Nature 417:74-78, 2002. A660 is measured using a diode. The chamber is water-jacketed to allow thermostabilization (15-to-1 water volume to sample volume −1 mL, closed chamber). Samples were constantly stirred using a top-mounted magnetic stir bar. Signals measured from electrodes and sensors are recorded on a computer through a commercially available L-154 card. Software has been written to enable data collection and analysis. All experiments were carried out in triplicate. Plots shown in the paper are representative.

[4] = biological target: calmodulin (Homo sapiens, UniProt P0DP23); experiment: Calmodulin-dependent calcineurin activity (pNPP hydrolysis); conditions: 300 μM compound
[5] = test system: PT induction in isolated rat liver mitochondria; experiment: High throughput spectrophotometric PT-induced swelling assay following Ca2+ challenge; type: biochemical; conditions: for protection against PT induction, score in the initial screen: 10 μM, blind library screen
From the text: This library was primarily composed of clinically-approved drugs that could readily be moved to late stage pre-clinical trials and then into accelerated clinical trials. […] The remainder of the library largely consisted of some analogues of these drugs, other known bioactive agents (including natural products, toxins and known inhibitors). Screening of this library was blind and was designed to identify compounds that acted independently of antioxidant activity or ability to chelate Ca^2+ (FIG. 2).
Assays were performed on mitochondria energized with succinate, glutamate/malate, or α-ketoglutarate. […] Subsequent assays (see, Table 1) repeated this approach using inducers optimized to overcome protection mediated by chelators (high C^2+ or antioxidants (high tert-butyl hydroperoxide), based on the rationale that it was unlikely to identify novel drug activities in these categories.
Each of these compounds was re-assayed against three models of PT induction and ranked according to the resistance it conferred to induction.
Bars are coded by each drug's therapeutic class. […] Compounds were assayed in triplicate at 7 concentrations (30, 10, 3, 1, 0.3, 0.1, and 0.03 μM) against three different challenges (50 μM Ca^2+/2.5 mM K—PO4, 25 μM Ca^2+/5 mM K—PO4, 25 μM Ca^2+/2.5 mM K—PO4/100 μM tert-butyl hydroperoxide). […] To address potential inaccuracies introduced by calculation of the area under the curve, protection was also assayed as percent absorbance remaining when absorbance of an unprotected sample had dropped and stabilized. […] “N” for each drug is 7 to 9. Horizontal lines show mean and mean plus one standard deviation.

[6] = test system: primary cerebrocortical neurons; experiment: Oxygen-glucose deprivation (OGD) of cultured primary cerebrocortical neurons; type: cell-based, mouse
Protocol: Heterocyclic-mediated protection was next examined in two models of stroke: (i) oxygen-glucose deprivation (OGD) of cultured primary cerebrocortical neurons, and; (ii) in the mouse, middle cerebral artery occlusion (MCAO)/reperfusion.
Neurotoxicity studies were conducted as previously described. […] Cerebral cortex of mouse embryos at day 15 (E15) were freed from meninges and separated from olfactory bulb and hippocampus.
OGD of primary cerebrocortical neurons is a widely used cell culture model of stroke-related pathology. […] Caspase-3 activation plays a key role in hypoxia/ischemia-mediated injury. To gam insight into the mechanism of promethazine-mediated neuroprotection, it was evaluated whether this compound could inhibit OGD-mediated caspase-3 activation.

[7] = test system: mouse middle cerebral artery occlusion (MCAO); conditions: in vivo
[8] = test system: apoptosis / PT induction; conditions: suggested; by reducing mitochondrial oxidative stress; cited from earlier work
[9] = test system: ischemia-reperfusion injury in multiple models; conditions: cited from earlier work
[10] = test system: humans; conditions: human, in vivo; cited from earlier work
[11] = test system: phospholipase A2 (PLA2); conditions: cited from earlier work

CN(C)CCCN1c2ccccc2Sc2ccc(Cl)cc21 [Chlorpromazine]
functional impairment [1]: reduced

CN(C)CCCN1c2ccccc2CCc2ccc(Cl)cc21 [Clomipramine]
hippocampal CA1 neuronal damage ([2]; 20 mg/kg): protect
Ca2+ transport [3]: without affecting
initial oxygen consumption prior to PT induction [3]: without affecting
resting or recovered Δψ [3]: without affecting
protection against PT induction (swelling, A660) [3]: protected

OCCN1CCN(CCCN2c3ccccc3Sc3ccc(C(F)(F)F)cc32)CC1 [Flufenazine]
Ca2+ transport [3]: without affecting
initial oxygen consumption prior to PT induction [3]: without affecting
resting or recovered Δψ [3]: without affecting
protection against PT induction (swelling, A660) [3]: protected

CCOC(=O)N1CCC(=C2c3ccc(Cl)cc3CCc3cccnc32)CC1 [Loratadine]
calmodulin activity (ratio to untreated plate controls) [4]: apparent calmodulin activation

CSc1ccc2c(c1)C(N1CCN(C)CC1)Cc1ccccc1S2 (stereo not drawn) [Methiothepin]
relative potency as PT inhibitor ([5]; ranking among the heterocyclics): approximately equivalent to promethazine in potency
Ca2+ transport [3]: without affecting
initial oxygen consumption prior to PT induction [3]: without affecting
resting or recovered Δψ [3]: without affecting
protection against PT induction (swelling, A660) [3]: protected

CN1CCN2c3ccccc3Cc3ccccc3C2C1 (stereo not drawn) [Mianserin]
protection in the gerbil ischemia model ([2]; 5-20 mg/kg): protects

CNCCC=C1c2ccccc2CCc2ccccc21 [Nortriptyline]
OGD-mediated caspase-3 activation [6]: inhibits; also recorded: attenuated
OGD mediated cytochrome C release ([6]; Western blot): Inhibiting; also recorded: minimized
OGD cell death as measured by LDH release ([6]; nortriptyline): preventing cell death; also recorded: reduction
infarct (stroke) volume [7]: significant reduction
infarct area in coronal slices compared to the controls [7]: decreases
neurological examination following cerebral ischemia [7]: improves
neuroprotection following MCAO [7]: mediates neuroprotection

CSc1ccc2c(c1)N(CCC1CCCCN1C)c1ccccc1S2 (stereo not drawn) [Thioridazine]
PT induction [8]: delay
apoptosis [8]: inhibit

CN1CCN(CCCN2c3ccccc3Sc3ccc(C(F)(F)F)cc32)CC1 [Trifluoperazine]
protection against ischemia-reperfusion injury [9]: protective
tolerability in humans [10]: limited utility for long-term use in humans because of its toxicity
phospholipase A2 (PLA2) inhibition [11]: can inhibit
functional impairment [1]: reduced
protection against PT induction, score in the initial screen [5]: moderate

CN1CCN(CC(=O)N2c3ccccc3C(=O)Nc3cccnc32)CC1 [pirenzepine]
calmodulin activity (ratio to untreated plate controls) [4]: apparent calmodulin activation

CC/C(=C(\c1ccccc1)c1ccc(OCCN(C)C)cc1)c1ccccc1 [tamoxifen]
protection against PT induction, score in the initial screen [5]: moderate
